Reference: ChEMBL document CHEMBL1201862, “PubChem BioAssay data set” (2004)
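How tested: cells in 96-well plates exposed to compound for 48 hours at five concentrations. GI50 marks 50% less growth.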 Calls of active or inactive are those of the source. Cut-off read from the data, not from the text of the source: active = GI50 up to about 1.1 µM and inactive = higher. Where a SMILES comes first, the peptide text is derived from it. The star is where a group is joined. Boc = CC(C)(C)OC(=O)*

What was measured:
Test in all cases: NCI anticancer screen, dose series, 48 h
[1] = test system: SNB-19
[2] = test system: PC-3
[3] = test system: IGROV-1
[4] = test system: SF-268
[5] = test system: NCI-H226
[6] = test system: SK-MEL-2
[7] = test system: LOX IMVI
[8] = test system: OVCAR-8
[9] = test system: RXF 393
[10] = test system: U-251
[11] = test system: HCT-15
[12] = test system: EKVX
[13] = test system: DU-145
[14] = test system: HT-29
[15] = test system: RPMI-8226
[16] = test system: CCRF-CEM
[17] = test system: T47D
[18] = test system: CAKI-1
[19] = test system: UACC-257

Compound	GI50 [1]	GI50 [2]	GI50 [3]	GI50 [4]	GI50 [5]	GI50 [6]	GI50 [7]	GI50 [8]	GI50 [9]	GI50 [10]	GI50 [11] [µM]	GI50 [12]	GI50 [13]	GI50 [14]	GI50 [15]	GI50 [16]	GI50 [17]	GI50 [18]	GI50 [19]
Clc1ccccc1NN(Cc1ccncc1)c1ccccc1Cl	17.3 µM (inactive)	15 µM (inactive)	14.6 µM (inactive)	18.1 µM (inactive)	21 µM (inactive)	14.4 µM (inactive)	16.7 µM (inactive)	13.8 µM (inactive)	16 µM (inactive)	13.5 µM (inactive)	16.3	14 µM (inactive)	17.5 µM (inactive)	12.6 µM (inactive)	10.8 µM (inactive)				
CCc1n[nH]c(=O)n1NC(=O)CCCC(=O)O	> 100 µM (inactive)	> 100 µM (inactive)	> 100 µM (inactive)	> 100 µM (inactive)	> 100 µM (inactive)	> 100 µM (inactive)	> 100 µM (inactive)	> 100 µM (inactive)	> 100 µM (inactive)	> 100 µM (inactive)	> 100	> 100 µM (inactive)		> 100 µM (inactive)	> 100 µM (inactive)	> 100 µM (inactive)	> 100 µM (inactive)	> 100 µM (inactive)	> 100 µM (inactive)
NCCCN1CCN(CCCNc2ccc3ncn4c5ccccc5c(=O)c2c34)CC1	0.887 µM (active)	1.69 µM (inactive)	1.04 µM (active)	1.26 µM (inactive)		2.8 µM (inactive)	0.875 µM (active)	1.87 µM (inactive)		1.02 µM (active)	4.4	2.85 µM (inactive)	1.46 µM (inactive)	1.13 µM (inactive)	1.52 µM (inactive)	1.41 µM (inactive)	3.02 µM (inactive)	1.14 µM (inactive)	5.97 µM (inactive)
CC(=O)NC1(c2cc3ccccc3s2)CCCCCC1	74.5 µM (inactive)	27.4 µM (inactive)	66.4 µM (inactive)	21.3 µM (inactive)	42.3 µM (inactive)	33 µM (inactive)	47.9 µM (inactive)	50.9 µM (inactive)	29.6 µM (inactive)	40.8 µM (inactive)	33.7	19.1 µM (inactive)	51.3 µM (inactive)	34.3 µM (inactive)		20.7 µM (inactive)		52.6 µM (inactive)	40 µM (inactive)
COc1ccccc1[S+]([O-])Nc1ccccc1 (centres undefined)	> 100 µM (inactive)		37.2 µM (inactive)	16.7 µM (inactive)	> 100 µM (inactive)	34 µM (inactive)	71.9 µM (inactive)	> 100 µM (inactive)		41.6 µM (inactive)	22.8	> 100 µM (inactive)	> 100 µM (inactive)	50.9 µM (inactive)	72.9 µM (inactive)	54.5 µM (inactive)	11.9 µM (inactive)		50.4 µM (inactive)
COc1cc(Br)cc2c1O[C@H]1C(=O)CC3CC21CCN3C (some centres undefined)	> 100 µM (inactive)	64 µM (inactive)	30.8 µM (inactive)	80 µM (inactive)		> 100 µM (inactive)	32.9 µM (inactive)	19.7 µM (inactive)			54.1	61 µM (inactive)		42.2 µM (inactive)	21.8 µM (inactive)	4.09 µM (inactive)	23.2 µM (inactive)	74.1 µM (inactive)	35.8 µM (inactive)
CC(=O)CCn1c(=S)sc2ccccc21	> 100 µM (inactive)	> 100 µM (inactive)	98.6 µM (inactive)	> 100 µM (inactive)	> 100 µM (inactive)	> 100 µM (inactive)	> 100 µM (inactive)	> 100 µM (inactive)	> 100 µM (inactive)	> 100 µM (inactive)	> 100	> 100 µM (inactive)	> 100 µM (inactive)	> 100 µM (inactive)		25.6 µM (inactive)		49.7 µM (inactive)	> 100 µM (inactive)
O=C(O)c1ccc(Nc2nc3ccccc3nc2C(=O)O)cc1	> 100 µM (inactive)		> 100 µM (inactive)	> 100 µM (inactive)		> 100 µM (inactive)		> 100 µM (inactive)		> 100 µM (inactive)		> 100 µM (inactive)	> 100 µM (inactive)	> 100 µM (inactive)	> 100 µM (inactive)	> 100 µM (inactive)	> 100 µM (inactive)	> 100 µM (inactive)	> 100 µM (inactive)
O=C(Cn1cc(-c2ccccc2)nn1)NC1CCCC1	> 100 µM (inactive)	> 100 µM (inactive)	> 100 µM (inactive)	> 100 µM (inactive)	> 100 µM (inactive)	> 100 µM (inactive)	> 100 µM (inactive)	> 100 µM (inactive)		> 100 µM (inactive)	> 100	> 100 µM (inactive)	> 100 µM (inactive)	> 100 µM (inactive)	> 100 µM (inactive)	> 100 µM (inactive)		> 100 µM (inactive)	> 100 µM (inactive)
COCOCC/C=C/C=O	> 100 µM (inactive)		> 100 µM (inactive)	> 100 µM (inactive)		> 100 µM (inactive)	> 100 µM (inactive)	> 100 µM (inactive)	> 100 µM (inactive)	> 100 µM (inactive)	> 100	> 100 µM (inactive)		> 100 µM (inactive)	> 100 µM (inactive)	> 100 µM (inactive)			> 100 µM (inactive)
O=c1[nH]nc(Cc2ccccc2)n1-n1cnnc1	> 100 µM (inactive)	> 100 µM (inactive)	> 100 µM (inactive)	> 100 µM (inactive)		> 100 µM (inactive)	> 100 µM (inactive)	> 100 µM (inactive)	> 100 µM (inactive)	> 100 µM (inactive)	> 100	> 100 µM (inactive)	> 100 µM (inactive)	> 100 µM (inactive)	> 100 µM (inactive)	> 100 µM (inactive)			> 100 µM (inactive)
N#C[BH2-][n+]1ccc(C(=O)NNC(c2ccccc2)C(F)(F)F)cc1 (centres undefined)	> 100 µM (inactive)	> 100 µM (inactive)	> 100 µM (inactive)	> 100 µM (inactive)	> 100 µM (inactive)	> 100 µM (inactive)	> 100 µM (inactive)	> 100 µM (inactive)		> 100 µM (inactive)	> 100	> 100 µM (inactive)	> 100 µM (inactive)	> 100 µM (inactive)	> 100 µM (inactive)	> 100 µM (inactive)		> 100 µM (inactive)	> 100 µM (inactive)
Nc1nc(Cl)c(CO)c(NCC2(CO)CCC2)n1	94.2 µM (inactive)	88.7 µM (inactive)	> 100 µM (inactive)	> 100 µM (inactive)	> 100 µM (inactive)		> 100 µM (inactive)	> 100 µM (inactive)	> 100 µM (inactive)	> 100 µM (inactive)	> 100	> 100 µM (inactive)	> 100 µM (inactive)	> 100 µM (inactive)	> 100 µM (inactive)	> 100 µM (inactive)		> 100 µM (inactive)	> 100 µM (inactive)
COc1cc(C(=O)CC2(O)C(=O)Nc3c(Cl)cc(Cl)cc32)ccc1O (centres undefined)	76.7 µM (inactive)			43.8 µM (inactive)	40 µM (inactive)	87.1 µM (inactive)	> 100 µM (inactive)	63 µM (inactive)	27.5 µM (inactive)	69 µM (inactive)	64	94 µM (inactive)		29.4 µM (inactive)	24.4 µM (inactive)	36.6 µM (inactive)		56.2 µM (inactive)	43.6 µM (inactive)
c1ccc2c(c1)ccc1nc(-c3ccc4c(c3)OCO4)c3c(c12)CCC3	> 100 µM (inactive)	56.4 µM (inactive)		> 100 µM (inactive)	> 100 µM (inactive)	> 100 µM (inactive)		56.4 µM (inactive)		> 100 µM (inactive)	83.2	89.3 µM (inactive)		41.1 µM (inactive)	37.1 µM (inactive)	74.5 µM (inactive)	52.4 µM (inactive)	> 100 µM (inactive)	> 100 µM (inactive)
CC1(C)CC(=O)C(=CNC(N)=S)C(=O)C1	> 100 µM (inactive)	> 100 µM (inactive)	> 100 µM (inactive)	> 100 µM (inactive)	> 100 µM (inactive)	> 100 µM (inactive)	> 100 µM (inactive)	> 100 µM (inactive)	> 100 µM (inactive)	> 100 µM (inactive)	> 100	> 100 µM (inactive)	> 100 µM (inactive)	> 100 µM (inactive)		> 100 µM (inactive)		> 100 µM (inactive)	> 100 µM (inactive)
COC(=O)C(Cc1c[nH]c2ccccc12)NC(=O)C(Cc1c[nH]c2ccccc12)NC(=O)C(Cc1c[nH]c2ccccc12)NC(=O)OC(C)(C)C (stereo not drawn) (Boc-Trp-Trp-Trp-OMe; configuration not given here)	18.9 µM (inactive)	15.9 µM (inactive)	18.7 µM (inactive)		16.5 µM (inactive)	17.3 µM (inactive)		20.7 µM (inactive)	8.93 µM (inactive)	18.5 µM (inactive)	19.5	57 µM (inactive)		19.2 µM (inactive)	27.2 µM (inactive)		4.67 µM (inactive)		32.7 µM (inactive)
COc1cc(C)c2c(c1C)OC(=O)c1c(C)c(Cl)c(O)c(C=O)c1O2	19.1 µM (inactive)		24.2 µM (inactive)	9.66 µM (inactive)	23.2 µM (inactive)		16 µM (inactive)	10.2 µM (inactive)		6.41 µM (inactive)		10.3 µM (inactive)		20.4 µM (inactive)	14 µM (inactive)	9.18 µM (inactive)		52.2 µM (inactive)	20 µM (inactive)
